This is an account of results in the NIST ThermoML archive (doi:10.1021/je049721u).

For data set [1] the following is noted: 101.3 kPa, Liquid.
The nature of data set [2]: mn = molality of the nth substance listed, in mol/kg. The note with it: 101.3 kPa, Liquid, m2 = 0.

Structures are written as SMILES. Several values for one entry are separate records, joined by “and”; a condition that tells them apart may be missing. Identical values can stand only once. ± gives the expanded uncertainty stated by the source.

`CN(C)C=O` [dimethylformamide]: the mass density (commonly the mass of a sample divided by its volume) in data set [1] (283.15 K) was 958.077 ± 0.58 kg/m3 and 958.163 ± 0.58 kg/m3 and 958.075 ± 0.58 kg/m3; in data set [1] (293.15 K) it was 948.565 ± 0.58 kg/m3 and 948.653 ± 0.59 kg/m3; in data set [1] (298.15 K) it was 943.797 ± 0.59 kg/m3 and 943.884 ± 0.59 kg/m3; in data set [1] (303.15 K) it was 939.017 ± 0.59 kg/m3 and 939.114 ± 0.59 kg/m3; in data set [1] (313.15 K) it was 929.529 ± 0.6 kg/m3 and 929.437 ± 0.6 kg/m3; in data set [1] (323.15 K), 919.807 ± 0.6 kg/m3 and 919.9 ± 0.61 kg/m3. Moreover, in data set [1] (333.15 K), the mass density was 910.12 ± 0.61 kg/m3 and 910.2 ± 0.61 kg/m3.

Regarding `CN(C)C=O` [dimethylformamide] + [Co+2].[O-][Cl+3]([O-])([O-])[O-].[O-][Cl+3]([O-])([O-])[O-], the mass density is 958.163 ± 0.58 kg/m3 in data set [2] (283.15 K); 948.653 ± 0.59 kg/m3 in data set [2] (293.15 K); 943.884 ± 0.59 kg/m3 in data set [2] (298.15 K); 939.114 ± 0.59 kg/m3 in data set [2] (303.15 K); 929.529 ± 0.6 kg/m3 in data set [2] (313.15 K); 919.9 ± 0.61 kg/m3 in data set [2] (323.15 K). Besides, in data set [2] (333.15 K), the mass density came to 910.2 ± 0.61 kg/m3.

`CN(C)C=O` [dimethylformamide] + [Cu+2].[O-][Cl+3]([O-])([O-])[O-].[O-][Cl+3]([O-])([O-])[O-]: the mass density was 958.075 ± 0.58 kg/m3 in data set [2] (283.15 K); 948.565 ± 0.59 kg/m3 in data set [2] (293.15 K); 943.797 ± 0.59 kg/m3 in data set [2] (298.15 K); 939.017 ± 0.59 kg/m3 in data set [2] (303.15 K); 929.437 ± 0.6 kg/m3 in data set [2] (313.15 K); 919.807 ± 0.61 kg/m3 in data set [2] (323.15 K). Besides, the mass density in data set [2] (333.15 K) is 910.12 ± 0.61 kg/m3.

Turning to `CN(C)C=O` [dimethylformamide] + [Mn+2].[O-][Cl+3]([O-])([O-])[O-].[O-][Cl+3]([O-])([O-])[O-], the mass density in data set [2] (283.15 K) is reported as 958.077 ± 0.58 kg/m3; in data set [2] (293.15 K) it was 948.565 ± 0.58 kg/m3; in data set [2] (298.15 K), 943.797 ± 0.59 kg/m3; in data set [2] (303.15 K), 939.017 ± 0.59 kg/m3; in data set [2] (313.15 K), 929.437 ± 0.6 kg/m3; in data set [2] (323.15 K), 919.807 ± 0.6 kg/m3. Also, the mass density in data set [2] (333.15 K) is 910.12 ± 0.61 kg/m3.

With `CN(C)C=O` [dimethylformamide] + [Ni+2].[O-][Cl+3]([O-])([O-])[O-].[O-][Cl+3]([O-])([O-])[O-], the mass density in data set [2] (283.15 K) is listed as 958.163 ± 0.58 kg/m3; in data set [2] (293.15 K), 948.653 ± 0.59 kg/m3; in data set [2] (298.15 K), 943.884 ± 0.59 kg/m3; in data set [2] (303.15 K), 939.114 ± 0.59 kg/m3; in data set [2] (313.15 K) it was 929.529 ± 0.6 kg/m3; in data set [2] (323.15 K), 919.9 ± 0.61 kg/m3. The mass density in data set [2] (333.15 K) is 910.2 ± 0.61 kg/m3.

Consider `CN(C)C=O` [dimethylformamide] + [O-][Cl+3]([O-])([O-])[O-].[O-][Cl+3]([O-])([O-])[O-].[Zn+2], for which the mass density in data set [2] (283.15 K) is given as 958.163 ± 0.58 kg/m3; in data set [2] (293.15 K), 948.653 ± 0.59 kg/m3; in data set [2] (298.15 K) it was 943.884 ± 0.59 kg/m3; in data set [2] (303.15 K), 939.114 ± 0.59 kg/m3; in data set [2] (313.15 K), 929.529 ± 0.6 kg/m3; in data set [2] (323.15 K) it was 919.9 ± 0.61 kg/m3. Further, the mass density in data set [2] (333.15 K) is 910.2 ± 0.61 kg/m3.
